Results reported in PubChem BioAssay (NCI).
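Each compound was tested at five concentrations against cells in 96-well plates for 48 hours. GI50 is the concentration that inhibits growth by half. At the TGI there is no net growth.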

Assays:
Assay in all cases: NCI anticancer screen, dose series, 48 h
[1] = system: COLO 205 colon
[2] = system: HCT-15 colon
[3] = system: HT29 colon
[4] = system: MOLT-4 leukemia
[5] = system: NCI-H522 lung
[6] = system: SN12C renal
[7] = system: U251 CNS
[8] = system: HOP-62 NSCLC
[9] = system: NCI-H226 lung
[10] = system: SF-268 CNS
[11] = system: UACC-257 melanoma

Structure (SMILES)	TGI [1]	TGI [2]	TGI [3]	TGI [4]	TGI [5]	TGI [6]	TGI [7]	TGI [8]	TGI [9]	TGI [10]	TGI [11]	GI50 [1]	GI50 [2]	GI50 [8]	GI50 [3]	GI50 [4]	GI50 [9]	GI50 [5]	GI50 [10]	GI50 [6]
O=C(N/C(=C\c1ccccc1[N+](=O)[O-])c1nc2ccccc2[nH]1)c1ccccc1	> 100 µM	> 100 µM	> 100 µM	> 100 µM	> 100 µM	> 100 µM	> 100 µM	–	–	–	–	–	–	–	–	–	–	–	–	–
CC1SC(c2ccccc2)N(Nc2c3ccccc3nc3ccccc23)C1=O (stereo not drawn)	> 100 µM	> 100 µM	> 100 µM	> 100 µM	> 100 µM	> 100 µM	> 100 µM	> 100 µM	> 100 µM	> 100 µM	> 100 µM	–	–	–	–	–	–	–	–	–
COc1ccc(-c2cc(-c3ccccc3)n(C3OCC(OC(C)=O)C(OC(C)=O)C3OC(C)=O)c(=S)c2C#N)cc1 (stereo not drawn)	> 100 µM	> 100 µM	> 100 µM	> 100 µM	> 100 µM	> 100 µM	> 100 µM	> 100 µM	> 100 µM	> 100 µM	> 100 µM	–	–	–	–	–	–	–	–	–
COc1cc(-c2n/c(=C\c3c(O)[nH]c4ccc(Cl)cc34)cc3c2=Nc2ccccc2-3)cc(OC)c1OC	3.81 µM	8.44 µM	2.96 µM	3.64 µM	4.09 µM	2.36 µM	–	0.783 µM	12 µM	3.95 µM	–	1.35 µM	1.56 µM	0.383 µM	1.04 µM	0.679 µM	3 µM	1.79 µM	1.6 µM	0.754 µM
C=C(C)[C@@H]1CC[C@]2(C)CC[C@]3(C)[C@H](CC[C@@H]4[C@@]5(C)CC[C@H](OC(=O)c6ccccc6)C(C)(C)[C@@H]5CC[C@]43C)[C@@H]12	> 100 µM	> 100 µM	> 100 µM	> 100 µM	> 100 µM	> 100 µM	> 100 µM	> 100 µM	> 100 µM	> 100 µM	> 100 µM	–	–	–	–	–	–	–	–	–
Nc1ccc2c(c1)C1=NNC(=O)CC1C2 (stereo not drawn)	> 100 µM	> 100 µM	> 100 µM	> 100 µM	> 100 µM	> 100 µM	> 100 µM	> 100 µM	> 100 µM	> 100 µM	> 100 µM	–	–	–	–	–	–	–	–	–
CCn1nc(C)c2c1C(=O)NC(C)C(=O)N2 (stereo not drawn)	> 100 µM	28.3 µM	> 100 µM	–	> 100 µM	> 100 µM	> 100 µM	–	–	> 100 µM	> 100 µM	–	–	–	–	–	–	–	–	–
COc1ccc(NS(=O)c2ccc(-c3ccccc3)cc2)cc1 (stereo not drawn)	> 100 µM	> 100 µM	> 100 µM	> 100 µM	> 100 µM	> 100 µM	> 100 µM	> 100 µM	> 100 µM	> 100 µM	> 100 µM	–	–	–	–	–	–	–	–	–
